Measurements taken from paper PMC6084503, “Pyrrolo[3,2-c]pyridine derivatives with potential inhibitory effect against FMS kinase: in vitro biological studies” (Journal of Enzyme Inhibition and Medicinal Chemistry, 2018).

What was measured:
Experiment in all cases: Kinase HotSpot 40-kinase panel
Assay type in all cases: biochemical
Settings in all cases: single-dose concentration of 1 μM
LCK = biological target: T1, LCK (Homo sapiens, UniProt P06239)
T1 construct: purchased Reaction Biology Corp. (Kinase HotSpot)
Description: (§1) Reaction Biology Corp. Kinase HotSpot^SM service [http://www.reactionbiology.com] was utilised for screening of the target compounds as per the protocol reported in the literature.
(§2) Compound 1r was tested against a panel of 40 kinases including FMS. […] Its inhibition percentages against FLT3 (D835Y) and c-MET kinases were 42% and 40%, respectively. So its IC50 values against both of them will be in micromolar scale. […] The inhibition percentages exerted by compound 1r against the other 37 tested kinases were less than 28%.

ALK = biological target: T2, ALK (Homo sapiens, UniProt Q9UM73)
T2 construct: purchased Reaction Biology Corp. (Kinase HotSpot)
Description: as §1, §2

TEC (activated) = biological target: T3, TEC (activated) (Homo sapiens, UniProt P42680)
T3 construct: purchased Reaction Biology Corp. (Kinase HotSpot)
Description: as §1, §2

CHK1 = biological target: T4, CHK1 (Homo sapiens, UniProt O14757)
T4 construct: purchased Reaction Biology Corp. (Kinase HotSpot)
Description: as §1, §2

c-SRC = biological target: T5, c-SRC (Homo sapiens, UniProt P12931)
T5 construct: purchased Reaction Biology Corp. (Kinase HotSpot)
Description: as §1, §2

HIPK2 = biological target: T6, HIPK2 (Homo sapiens, UniProt Q9H2X6)
T6 construct: purchased Reaction Biology Corp. (Kinase HotSpot)
Description: as §1, §2

FYN = biological target: T7, FYN (Homo sapiens, UniProt P06241)
T7 construct: purchased Reaction Biology Corp. (Kinase HotSpot)
Description: as §1, §2

SYK = biological target: T8, SYK (Homo sapiens, UniProt P43405)
T8 construct: purchased Reaction Biology Corp. (Kinase HotSpot)
Description: as §1, §2

PLK1 = biological target: T9, PLK1 (Homo sapiens, UniProt P53350)
T9 construct: purchased Reaction Biology Corp. (Kinase HotSpot)
Description: as §1, §2

RET = biological target: T10, RET (Homo sapiens, UniProt P07949)
T10 construct: purchased Reaction Biology Corp. (Kinase HotSpot)
Description: as §1, §2

PDK1 = biological target: T11, PDK1 (Homo sapiens, UniProt O15530)
T11 construct: purchased Reaction Biology Corp. (Kinase HotSpot)
Description: as §1, §2

EGFR (T790M) = biological target: T12, EGFR (T790M) (Homo sapiens, UniProt P00533, T790M)
T12 construct: purchased Reaction Biology Corp. (Kinase HotSpot)
Description: as §1, §2

KDR = biological target: T13, KDR (Homo sapiens, UniProt P35968)
T13 construct: purchased Reaction Biology Corp. (Kinase HotSpot)
Description: as §1, §2

FGFR1 = biological target: T14, FGFR1 (Homo sapiens, UniProt P11362)
T14 construct: purchased Reaction Biology Corp. (Kinase HotSpot)
Description: as §1, §2

c-MET = biological target: T15, c-MET (Homo sapiens, UniProt P08581)
T15 construct: purchased Reaction Biology Corp. (Kinase HotSpot)
Description: as §1, §2

ROS/ROS1 = biological target: T16, ROS/ROS1 (Homo sapiens, UniProt P08922)
T16 construct: purchased Reaction Biology Corp. (Kinase HotSpot)
Description: as §1, §2

DMPK = biological target: T17, DMPK (Homo sapiens, UniProt Q09013)
T17 construct: purchased Reaction Biology Corp. (Kinase HotSpot)
Description: as §1, §2

mTOR = biological target: T18, mTOR (Homo sapiens, UniProt P42345)
T18 construct: purchased Reaction Biology Corp. (Kinase HotSpot)
Description: as §1, §2

IGF-1R = biological target: T19, IGF-1R (Homo sapiens, UniProt P08069)
T19 construct: purchased Reaction Biology Corp. (Kinase HotSpot)
Description: as §1, §2

SAPK2a = biological target: T20, SAPK2a (Homo sapiens, UniProt Q16539)
T20 construct: purchased Reaction Biology Corp. (Kinase HotSpot)
Description: as §1, §2

MEK1 = biological target: T21, MEK1 (Homo sapiens, UniProt Q02750)
T21 construct: purchased Reaction Biology Corp. (Kinase HotSpot)
Description: as §1, §2

CDK2/cyclinE = biological target: T22, CDK2/cyclinE (Homo sapiens, UniProt P24941)
T22 construct: purchased Reaction Biology Corp. (Kinase HotSpot)
Description: as §1, §2

CDK5/p25 = biological target: T23, CDK5/p25 (Homo sapiens, UniProt Q00535)
T23 construct: purchased Reaction Biology Corp. (Kinase HotSpot)
Description: as §1, §2

Aurora A = biological target: T24, Aurora A (Homo sapiens, UniProt O14965)
T24 construct: purchased Reaction Biology Corp. (Kinase HotSpot)
Description: as §1, §2

ROCK1 = biological target: T25, ROCK1 (Homo sapiens, UniProt Q13464)
T25 construct: purchased Reaction Biology Corp. (Kinase HotSpot)
Description: as §1, §2

MLK1 = biological target: T26, MLK1 (Homo sapiens, UniProt P80192)
T26 construct: purchased Reaction Biology Corp. (Kinase HotSpot)
Description: as §1, §2

RSK1 = biological target: T27, RSK1 (Homo sapiens, UniProt Q15418)
T27 construct: purchased Reaction Biology Corp. (Kinase HotSpot)
Description: as §1, §2

IR = biological target: T28, IR (Homo sapiens, UniProt P06213)
T28 construct: purchased Reaction Biology Corp. (Kinase HotSpot)
Description: as §1, §2

PIM1 = biological target: T29, PIM1 (Homo sapiens, UniProt P11309)
T29 construct: purchased Reaction Biology Corp. (Kinase HotSpot)
Description: as §1, §2

EPHA1 = biological target: T30, EPHA1 (Homo sapiens, UniProt P21709)
T30 construct: purchased Reaction Biology Corp. (Kinase HotSpot)
Description: as §1, §2

PAK2 = biological target: T31, PAK2 (Homo sapiens, UniProt Q13177)
T31 construct: purchased Reaction Biology Corp. (Kinase HotSpot)
Description: as §1, §2

GSK3β = biological target: T32, GSK3β (Homo sapiens, UniProt P49841)
T32 construct: purchased Reaction Biology Corp. (Kinase HotSpot)
Description: as §1, §2

P70S6K = biological target: T33, P70S6K (Homo sapiens, UniProt P23443)
T33 construct: purchased Reaction Biology Corp. (Kinase HotSpot)
Description: as §1, §2

BTK = biological target: T34, BTK (Homo sapiens, UniProt Q06187)
T34 construct: purchased Reaction Biology Corp. (Kinase HotSpot)
Description: as §1, §2

IKKβ = biological target: T35, IKKβ (Homo sapiens, UniProt O14920)
T35 construct: purchased Reaction Biology Corp. (Kinase HotSpot)
Description: as §1, §2

CaMKI = biological target: T36, CaMKI (Homo sapiens, UniProt Q14012)
T36 construct: purchased Reaction Biology Corp. (Kinase HotSpot)
Description: as §1, §2

ABL1 = biological target: T37, ABL1 (Homo sapiens, UniProt P00519)
T37 construct: purchased Reaction Biology Corp. (Kinase HotSpot)
Description: as §1, §2

FLT3 (D835Y) = biological target: T38, FLT3 (D835Y) (Homo sapiens, UniProt P36888, D835Y)
T38 construct: purchased Reaction Biology Corp. (Kinase HotSpot)
Description: as §1, §2

JNK1α1 = biological target: T39, JNK1α1 (Homo sapiens, UniProt P45983)
T39 construct: purchased Reaction Biology Corp. (Kinase HotSpot)
Description: as §1, §2

T12 sequence (P00533 25-1210 T790M): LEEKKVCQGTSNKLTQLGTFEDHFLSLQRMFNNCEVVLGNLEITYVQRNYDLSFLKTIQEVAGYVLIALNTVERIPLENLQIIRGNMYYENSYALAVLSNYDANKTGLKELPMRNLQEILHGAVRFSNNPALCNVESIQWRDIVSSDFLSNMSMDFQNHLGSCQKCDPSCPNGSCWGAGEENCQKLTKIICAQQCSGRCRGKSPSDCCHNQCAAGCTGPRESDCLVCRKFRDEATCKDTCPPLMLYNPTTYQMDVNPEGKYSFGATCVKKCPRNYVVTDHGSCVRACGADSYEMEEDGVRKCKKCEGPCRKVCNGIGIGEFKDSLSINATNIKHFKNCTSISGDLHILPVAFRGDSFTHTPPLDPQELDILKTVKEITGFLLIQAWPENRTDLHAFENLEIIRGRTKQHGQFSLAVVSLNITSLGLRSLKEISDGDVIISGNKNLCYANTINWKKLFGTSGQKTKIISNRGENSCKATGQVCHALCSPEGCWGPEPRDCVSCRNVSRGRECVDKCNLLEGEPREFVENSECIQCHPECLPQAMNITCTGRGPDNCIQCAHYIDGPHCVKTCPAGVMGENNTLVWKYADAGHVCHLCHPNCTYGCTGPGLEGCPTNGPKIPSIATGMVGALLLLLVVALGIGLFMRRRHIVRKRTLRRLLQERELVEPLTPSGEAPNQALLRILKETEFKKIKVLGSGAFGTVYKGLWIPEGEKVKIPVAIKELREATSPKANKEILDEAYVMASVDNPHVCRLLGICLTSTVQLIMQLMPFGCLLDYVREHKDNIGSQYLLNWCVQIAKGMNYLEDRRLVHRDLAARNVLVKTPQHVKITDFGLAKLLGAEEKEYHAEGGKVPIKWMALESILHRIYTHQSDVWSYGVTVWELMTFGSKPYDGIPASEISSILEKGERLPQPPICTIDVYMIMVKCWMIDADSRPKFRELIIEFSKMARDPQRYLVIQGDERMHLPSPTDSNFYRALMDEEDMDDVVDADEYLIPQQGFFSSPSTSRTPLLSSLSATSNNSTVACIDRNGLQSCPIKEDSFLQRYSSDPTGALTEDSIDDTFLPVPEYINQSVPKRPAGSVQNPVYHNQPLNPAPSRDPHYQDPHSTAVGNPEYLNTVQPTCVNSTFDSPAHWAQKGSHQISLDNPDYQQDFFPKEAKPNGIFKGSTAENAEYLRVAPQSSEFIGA
T6 sequence (Q9H2X6 whole entry): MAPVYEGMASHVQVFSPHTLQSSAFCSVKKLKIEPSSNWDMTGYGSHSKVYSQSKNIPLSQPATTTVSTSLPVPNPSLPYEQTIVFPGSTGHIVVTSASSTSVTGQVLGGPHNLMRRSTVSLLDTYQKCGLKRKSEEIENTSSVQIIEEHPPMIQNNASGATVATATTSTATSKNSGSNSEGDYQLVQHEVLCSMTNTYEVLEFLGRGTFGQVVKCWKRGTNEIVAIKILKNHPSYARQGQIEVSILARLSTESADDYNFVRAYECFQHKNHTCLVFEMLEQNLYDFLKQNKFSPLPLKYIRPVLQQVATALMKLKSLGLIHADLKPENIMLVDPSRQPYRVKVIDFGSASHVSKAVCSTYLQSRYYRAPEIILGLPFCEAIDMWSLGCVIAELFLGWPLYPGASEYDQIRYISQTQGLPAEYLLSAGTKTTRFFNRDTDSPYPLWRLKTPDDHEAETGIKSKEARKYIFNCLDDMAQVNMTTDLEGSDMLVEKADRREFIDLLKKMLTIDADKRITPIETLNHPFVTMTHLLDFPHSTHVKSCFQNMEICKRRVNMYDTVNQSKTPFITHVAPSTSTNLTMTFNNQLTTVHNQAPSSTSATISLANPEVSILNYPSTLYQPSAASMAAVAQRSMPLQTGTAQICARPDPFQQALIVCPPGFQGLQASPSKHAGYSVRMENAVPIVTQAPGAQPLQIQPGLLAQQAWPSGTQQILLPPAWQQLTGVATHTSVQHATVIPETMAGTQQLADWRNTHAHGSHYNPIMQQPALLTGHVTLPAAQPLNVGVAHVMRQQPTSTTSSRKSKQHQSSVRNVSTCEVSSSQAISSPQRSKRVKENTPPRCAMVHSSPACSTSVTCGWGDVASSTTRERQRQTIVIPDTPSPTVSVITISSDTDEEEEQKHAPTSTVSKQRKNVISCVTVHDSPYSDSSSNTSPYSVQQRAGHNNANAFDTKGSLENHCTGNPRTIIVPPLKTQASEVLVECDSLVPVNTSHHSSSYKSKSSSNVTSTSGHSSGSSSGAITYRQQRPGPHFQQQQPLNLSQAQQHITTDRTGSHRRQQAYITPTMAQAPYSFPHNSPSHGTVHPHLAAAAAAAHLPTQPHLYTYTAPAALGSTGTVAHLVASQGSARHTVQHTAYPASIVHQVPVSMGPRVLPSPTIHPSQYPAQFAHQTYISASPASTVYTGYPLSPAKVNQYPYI
T39 sequence (P45983 1-384 isoform P45983-2): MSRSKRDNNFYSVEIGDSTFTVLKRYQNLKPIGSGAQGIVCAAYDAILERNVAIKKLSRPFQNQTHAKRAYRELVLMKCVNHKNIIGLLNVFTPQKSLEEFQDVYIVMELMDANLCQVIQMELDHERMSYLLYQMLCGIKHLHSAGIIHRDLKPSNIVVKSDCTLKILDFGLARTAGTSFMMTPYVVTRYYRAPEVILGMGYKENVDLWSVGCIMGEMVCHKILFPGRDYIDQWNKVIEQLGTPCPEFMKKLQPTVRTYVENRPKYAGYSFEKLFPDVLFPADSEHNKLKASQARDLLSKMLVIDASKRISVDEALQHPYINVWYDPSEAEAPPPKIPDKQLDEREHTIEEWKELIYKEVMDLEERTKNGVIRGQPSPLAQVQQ
T5 sequence (P12931 whole entry): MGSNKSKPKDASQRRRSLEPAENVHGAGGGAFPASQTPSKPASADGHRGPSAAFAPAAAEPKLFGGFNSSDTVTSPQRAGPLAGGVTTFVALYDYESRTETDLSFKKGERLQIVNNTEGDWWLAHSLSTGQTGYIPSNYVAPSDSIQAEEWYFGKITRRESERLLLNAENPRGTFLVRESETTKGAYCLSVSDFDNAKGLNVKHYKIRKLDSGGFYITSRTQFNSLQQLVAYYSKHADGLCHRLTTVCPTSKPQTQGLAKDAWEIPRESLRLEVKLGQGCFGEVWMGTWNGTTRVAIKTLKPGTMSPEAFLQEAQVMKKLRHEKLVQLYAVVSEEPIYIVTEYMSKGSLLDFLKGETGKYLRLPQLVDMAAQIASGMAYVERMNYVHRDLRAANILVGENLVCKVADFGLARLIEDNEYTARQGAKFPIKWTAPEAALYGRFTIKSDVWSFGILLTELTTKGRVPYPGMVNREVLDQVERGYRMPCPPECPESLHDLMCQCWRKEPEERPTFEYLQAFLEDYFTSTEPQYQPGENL
T15 sequence (P08581 25-1390): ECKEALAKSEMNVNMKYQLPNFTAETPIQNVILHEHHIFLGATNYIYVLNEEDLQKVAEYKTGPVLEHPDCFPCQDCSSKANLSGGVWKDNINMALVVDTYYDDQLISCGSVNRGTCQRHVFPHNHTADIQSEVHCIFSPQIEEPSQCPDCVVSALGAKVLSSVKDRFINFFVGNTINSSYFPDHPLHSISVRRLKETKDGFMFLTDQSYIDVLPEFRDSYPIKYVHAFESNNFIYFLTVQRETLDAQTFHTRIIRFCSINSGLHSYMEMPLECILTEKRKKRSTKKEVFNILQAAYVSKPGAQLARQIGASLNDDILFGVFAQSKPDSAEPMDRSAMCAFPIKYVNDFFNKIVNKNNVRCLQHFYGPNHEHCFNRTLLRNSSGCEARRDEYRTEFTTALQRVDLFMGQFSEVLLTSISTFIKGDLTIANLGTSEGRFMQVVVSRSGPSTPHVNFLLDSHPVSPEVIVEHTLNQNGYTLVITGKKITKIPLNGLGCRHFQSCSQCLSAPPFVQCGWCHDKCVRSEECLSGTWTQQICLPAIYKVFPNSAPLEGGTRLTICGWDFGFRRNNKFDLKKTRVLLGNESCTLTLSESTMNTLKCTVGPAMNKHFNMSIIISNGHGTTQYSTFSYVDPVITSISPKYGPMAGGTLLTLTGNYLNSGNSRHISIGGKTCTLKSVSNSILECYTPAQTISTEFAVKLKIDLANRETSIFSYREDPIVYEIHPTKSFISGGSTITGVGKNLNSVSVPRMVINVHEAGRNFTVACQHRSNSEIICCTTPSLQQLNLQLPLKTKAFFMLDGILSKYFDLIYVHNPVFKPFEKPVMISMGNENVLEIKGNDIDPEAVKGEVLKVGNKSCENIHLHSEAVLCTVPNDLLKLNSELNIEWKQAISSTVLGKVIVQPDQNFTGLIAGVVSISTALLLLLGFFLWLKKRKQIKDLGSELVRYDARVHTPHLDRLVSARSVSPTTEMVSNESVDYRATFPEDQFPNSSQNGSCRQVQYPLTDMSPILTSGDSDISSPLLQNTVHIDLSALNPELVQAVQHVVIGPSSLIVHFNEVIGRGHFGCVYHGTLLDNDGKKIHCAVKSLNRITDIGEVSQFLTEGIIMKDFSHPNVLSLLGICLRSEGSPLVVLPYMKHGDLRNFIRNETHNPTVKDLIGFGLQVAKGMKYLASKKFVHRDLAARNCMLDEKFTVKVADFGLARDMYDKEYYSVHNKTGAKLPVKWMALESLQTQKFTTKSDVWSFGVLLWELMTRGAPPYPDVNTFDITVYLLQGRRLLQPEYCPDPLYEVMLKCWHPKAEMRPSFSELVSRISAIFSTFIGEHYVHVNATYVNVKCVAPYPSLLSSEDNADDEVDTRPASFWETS
T29 sequence (P11309 whole entry): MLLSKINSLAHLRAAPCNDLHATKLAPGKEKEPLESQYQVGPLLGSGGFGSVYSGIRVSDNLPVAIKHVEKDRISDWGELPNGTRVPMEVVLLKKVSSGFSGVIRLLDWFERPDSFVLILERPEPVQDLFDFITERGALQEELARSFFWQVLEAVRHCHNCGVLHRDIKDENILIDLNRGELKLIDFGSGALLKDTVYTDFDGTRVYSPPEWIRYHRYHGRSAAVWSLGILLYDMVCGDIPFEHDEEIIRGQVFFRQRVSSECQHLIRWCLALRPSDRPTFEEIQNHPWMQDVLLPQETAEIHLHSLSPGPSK

Nc1nccc2c1ccn2-c1cccc(NC(=O)c2ccc(N3CCOCC3)c(C(F)(F)F)c2)c1 [Compound 1r]
% Inhibition (LCK): −7% | % Inhibition (ALK): 0% | % Inhibition (TEC (activated)): 10% | % Inhibition (CHK1): −6% | % Inhibition (c-SRC): −4% | % Inhibition (HIPK2): 6% | % Inhibition (FYN): 14% | % Inhibition (SYK): −5% | % Inhibition (PLK1): 7% | % Inhibition (RET): 27% | % Inhibition (PDK1): −7% | % Inhibition (EGFR (T790M)): 4% | % Inhibition (KDR): 1% | % Inhibition (FGFR1): −3% | % Inhibition (c-MET): 40% | % Inhibition (ROS/ROS1): −4% | % Inhibition (DMPK): −1% | % Inhibition (mTOR): −2% | % Inhibition (IGF-1R): 4% | % Inhibition (SAPK2a): −1% | % Inhibition (MEK1): −7% | % Inhibition (CDK2/cyclinE): −1% | % Inhibition (CDK5/p25): −5% | % Inhibition (Aurora A): −2% | % Inhibition (ROCK1): 2% | % Inhibition (MLK1): −4% | % Inhibition (RSK1): −4% | % Inhibition (IR): 5% | % Inhibition (PIM1): −6% | % Inhibition (EPHA1): −10% | % Inhibition (PAK2): −9% | % Inhibition (GSK3β): −3% | % Inhibition (P70S6K): −8% | % Inhibition (BTK): 1% | % Inhibition (IKKβ): 1% | % Inhibition (CaMKI): −23% | % Inhibition (ABL1): 15% | % Inhibition (FLT3 (D835Y)): 42% | % Inhibition (JNK1α1): −5%

O=C(Nc1cccc(-n2ccc3c(NC(=O)c4ccccc4)nccc32)c1)c1ccc(N2CCOCC2)c(C(F)(F)F)c1 [KIST101029, reference compound]
inhibition at 1 µM (LCK): 33% | inhibition at 1 µM (ALK): 11% | inhibition at 1 µM (TEC (activated)): 14% | inhibition at 1 µM (CHK1): -8% | inhibition at 1 µM (c-SRC): 10% | inhibition at 1 µM (HIPK2): 9% | inhibition at 1 µM (FYN): 44% | inhibition at 1 µM (SYK): 6% | inhibition at 1 µM (PLK1): 4% | inhibition at 1 µM (RET): 57% | inhibition at 1 µM (PDK1): -1% | inhibition at 1 µM (EGFR (T790M)): 1% | inhibition at 1 µM (KDR): 71% | inhibition at 1 µM (FGFR1): 6% | inhibition at 1 µM (c-MET): -16% | inhibition at 1 µM (ROS/ROS1): 19% | inhibition at 1 µM (DMPK): -18% | inhibition at 1 µM (mTOR): -10% | inhibition at 1 µM (IGF-1R): 10% | inhibition at 1 µM (SAPK2a): 25% | inhibition at 1 µM (MEK1): 12% | inhibition at 1 µM (CDK2/cyclinE): -12% | inhibition at 1 µM (CDK5/p25): 8% | inhibition at 1 µM (Aurora A): 21% | inhibition at 1 µM (ROCK1): 3% | inhibition at 1 µM (MLK1): -1% | inhibition at 1 µM (RSK1): 8% | inhibition at 1 µM (IR): 2% | inhibition at 1 µM (PIM1): 10% | inhibition at 1 µM (EPHA1): 9% | inhibition at 1 µM (PAK2): 2% | inhibition at 1 µM (GSK3β): 4% | inhibition at 1 µM (P70S6K): 7% | inhibition at 1 µM (BTK): 7% | inhibition at 1 µM (IKKβ): 23% | inhibition at 1 µM (CaMKI): -1% | inhibition at 1 µM (ABL1): 41% | inhibition at 1 µM (FLT3 (D835Y)): 16% | inhibition at 1 µM (JNK1α1): -1%
